{"source": "patent US20170035825A1", "about": "“FOOD SUPPLEMENT COMPOSITION COMPRISING A CUCUMBER (CUCUMIS SATIVUS) EXTRACT” (NATURALEA SA, priority 2014, published 2017)", "origin": "cited, not measured here", "test_system": "uterus explants"}
{"compound": "O=C(O)[C@@H]1NC[C@H](O)[C@@H](O)[C@@H]1O", "note": "[ido-BR1, (2R,3R,4R,5S)-3,4,5-trihydroxypiperidine-2-carboxylic acid]", "values": [{"measurement": "effect on inflammation at 72 h", "setting": "72 h", "value": "not significant"}, {"measurement": "inflammation in the uterus explants", "setting": "dose-dependent", "value": "abrogated inflammation in the uterus explants"}]}
